Measured values reported in patent publication US7989393B2, “Methods of controlling algae with thaxtomin and thaxtomin compositions” (priority 2007, dated 2011).

Legend:
algae (mix) = test: Water and algae mix in a test tube; assay type: cell-based, green algae; details: 10 mMol (2,840 ppm) in 2 ml water and algae mix
Protocol: Thaxtomin was added to water and algae in a test tube.
Metolachlor (2-chloro-N-(6-ethyl-o-tolyl)-N-[(1RS)-2-methoxy-1-methylethyl]acetamide) is a known pre-emergent herbicide commonly used to control annual grasses and some broadleaves such as Eastern black nightshade and pigweeds.

Batrachospermum spp. = test: Bioactivity of purified thaxtomin verse CuSO4, algae growth bioassay; assay type: cell-based; set-up: key: ++ = visible death; + = growth inhibition; − = no visible growth inhibition; details: 2 ppm, two weeks
Protocol: (§1) Purified thaxtomin was used for a bioassay test and its efficacy evaluated and compared with copper sulphate, an active ingredient for many copper based algaecides. The bioassay was run for two weeks and inhibition of algae growth was evaluated.

Oedogonium spp. = test: as above; assay type: cell-based; set-up: key: ++ = visible death; + = growth inhibition; − = no visible growth inhibition; details: 2 ppm, two weeks
Protocol: as §1

Oscillatoria spp. = test: as above; assay type: cell-based; set-up: key: ++ = visible death; + = growth inhibition; − = no visible growth inhibition; details: 2 ppm, two weeks
Protocol: as §1

Rhodymenia spp. = test: as above; assay type: cell-based; set-up: key: ++ = visible death; + = growth inhibition; − = no visible growth inhibition; details: 2 ppm, two weeks
Protocol: as §1

Spirogyra spp. = test: as above; assay type: cell-based; set-up: key: ++ = visible death; + = growth inhibition; − = no visible growth inhibition; details: 2 ppm, two weeks
Protocol: as §1

the tested algae = test: Purified thaxtomin versus copper sulphate bioassay (text summary of Example 5); assay type: cell-based; details: 2 ppm (commercial recommended rate); two weeks
Protocol: as §1

SMILES: CCc1cccc(C)c1N(C(=O)CCl)C(C)COC (racemic) [Metolachlor, 2-chloro-N-(6-ethyl-o-tolyl)-N-[(1RS)-2-methoxy-1-methylethyl]acetamide]
- Results: appearance of water and algae mix (algae (mix)): did not show any algaestatic and/or algaecidal activity

SMILES: O=S(=O)([O-])[O-].[Cu+2] [CuSO4, copper sulphate]
- Bioactivity (inhibition of algae growth) (Batrachospermum spp.): −
- Bioactivity (inhibition of algae growth) (Oedogonium spp.): −
- Bioactivity (inhibition of algae growth) (Oscillatoria spp.): −
- Bioactivity (inhibition of algae growth) (Rhodymenia spp.): −
- Bioactivity (inhibition of algae growth) (Spirogyra spp.): +
- efficacy against the tested organisms (the tested algae): not very effective
